Source: a melting point compilation (Tetko et al.; mined from patent text by program, amines drawn as free bases though some values may be those of a salt)

Row | SMILES | melting point [°C]
1 | Cn1cccc1C(=O)C(C#N)C(=O)Nc1c(Cl)cccc1Cl (stereo unspecified) | 196 to 199
2 | CCn1c(=O)c2c(nc(/C=C/c3ccccc3OC)n2C)n(CC)c1=O | 190
3 | CSc1c(C)c(-c2ncc(Cl)cc2F)nn1C | 61 to 64
4 | O=C1CC(CCCl)c2ccccc2N1 (stereo unspecified) | 112 to 113
5 | Nc1nc(Cl)c(C2=NCCN2)c(Cl)n1 | 197 to 198
6 | C[C@H](NS(=O)(=O)c1ccc2c(c1)Sc1ccccc1O2)C(=O)O | 75 to 85
7 | NS(=O)(=O)c1ccc2nc(C(F)(F)F)[nH]c(=O)c2c1 | 311 to 314
8 | Nc1cnc2cc(Cl)ccc2c1Nc1ccc(F)cc1 | 198 to 200
9 | CCCOc1ccc2c(c1)[C@@H](c1ccc(OC)cc1OCCO)[C@H](C(=O)O)[C@H]2c1ccc2c(c1)OCO2 | 125 to 127
10 | CCCOc1cc(C(=O)NC2CC(C)(C)NC(C)(C)C2)ccc1-c1cc2cc(Cl)c(Cl)cc2[nH]1 | > 250
11 | Cc1cc(Oc2ccc(Oc3ccc(N)c(C)c3)cc2)ccc1N | 150 to 151
12 | NCCSc1ncccc1C(O)c1ccccc1 (stereo unspecified) | 118 to 120
13 | COc1ccc(CN(C)CCCc2ccc(NC(=O)c3[nH]c4ccccc4c3C(=O)c3ccccc3)cc2)cc1OC | 156 to 161
14 | CC(C)(C)OC(=O)c1ncn2c1[C@@H]1CCN1C(=O)c1c(Br)cccc1-2 | 240 to 241
15 | Cn1c2ccc(C(=O)c3ccccc3)cc2c2cc(C(=O)c3ccccc3)ccc21 | 222
16 | c1ccc(-c2cnc3c(c2)ncn3-c2cccc(-c3cccnc3)c2)cc1 | 179 to 180
17 | O=S(=O)(CCO)c1cc2c(Nc3cccc(Br)c3)ncnc2cn1 | 208 to 209
18 | Cn1nc(N)cc1COCc1ccccc1 | 214
19 | COC(=O)c1ccc(-c2ccc(Cl)cc2)nc1 | 124 to 126
20 | Cc1cc(-c2nnc3c4ccccc4c(OCc4ccn(C)n4)nn23)no1 | 243 to 244
21 | COc1cc(C(=O)c2nc(C#N)c3ccccn23)ccc1[N+](=O)[O-] | 219
22 | O=C(c1ccc(Cl)cc1)C(Cn1cncn1)n1cncn1 (stereo unspecified) | 204
23 | C=C1CC(COc2cccc3cccnc23)(c2ccc(Cl)cc2)OC1=O (stereo unspecified) | 107 to 108

Row | SMILES | melting point [°C]
24 | N#CCCCCNc1ccc(O)cc1 | 88 to 90
25 | O=C1N(N2CCOCC2)c2ccccc2C1(Cc1ccnc(F)c1)Cc1ccnc(F)c1 | 198 to 203
26 | CC(O)C#CC1CCC2C3CCC4CC(O[Si](c5ccccc5)(c5ccccc5)C(C)(C)C)CCC4(C)C3CCC12C (stereo unspecified) | 68 to 70
27 | C=CCN(CC=C)Cc1noc(-c2ncn3c2[C@@H]2CCN2C(=O)c2ccccc2-3)n1 | 147 to 150
28 | COC(=O)c1cccc(-c2ccnc3c(C(=O)c4cccs4)cnn23)c1 | 180 to 184
29 | CCSC1Oc2ccccc2C(=S)C1(C#N)C(N)=O (stereo unspecified) | 165 to 168
30 | CCn1cncc1/C=C/c1cn(-c2ccccc2)nc1OCc1ccc(OCc2nc(-c3ccco3)oc2C)c(OC)c1 | 130 to 132
31 | CC(C)n1ccc(-c2ccc([C@H](C)N3CC[C@](CC(C)(C)O)(c4ccccc4)OC3=O)cc2)cc1=O | 134 to 139
32 | CCCCCCC(=O)c1cn(CCCC(=O)O)c2ccccc12 | 58 to 60
33 | COc1cccc(C2(C(C)(C)O)CCN(C)CC2)c1OC | 97
34 | COCc1cnc2c(NC(=O)c3c(Cl)cccc3Cl)cccc2c1Cl | 177
35 | Cc1oc(-c2ccccc2)nc1CCc1nc(CCl)co1 | 71 to 72
36 | CCCCc1oc2ccccc2c1-c1ccc(-c2ccc(OCC(=O)O)cc2)cc1 | 126 to 128
37 | NC(=O)C(Nc1ccc2ccccc2c1)c1c(Cl)cccc1Cl (stereo unspecified) | 158
38 | c1cn(-c2ccnc(-n3ccnc3)n2)cn1 | 131 to 132
39 | COc1ccc(C[C@](C)(N[C@@H](C(N)=O)c2ccccc2)C(N)=O)cc1 | 106 to 108
40 | Cc1cccc(-c2[nH]cnc2-c2ccc(F)c(Br)c2)n1 | 205
41 | CC(O)C#Cc1cc(C(C)Nc2nc(N)nc(C(C)(C)F)n2)ccc1F (stereo unspecified) | 119 to 122
42 | O=C(O)c1cncn1C(C1CCCCC1)C1CCCCC1 | 253
43 | O=c1[nH]c2sccc2c(=O)o1 | 233
44 | O=C(O)c1ccc(-c2ccc(O)c(F)c2)cc1 | 254 to 256
45 | O=c1[nH]c2ccc(-c3cccc([N+](=O)[O-])c3)cc2s1 | 276 to 277
46 | CCOC(=O)c1[nH]cc2c1NC1=C(C(=O)CCC1)C2c1ccc(Sc2nc3cccnc3[nH]2)o1 (stereo unspecified) | 190 to 202

Row | SMILES | melting point [°C]
47 | BrCc1ccc(-c2nc3ccccn3n2)cc1 | 196
48 | Cc1cc(C=NNC(N)=S)ncc1N | 235 to 236
49 | O=C(Cc1ccccc1)c1cc2c(c(Cl)c1Cl)OC(C(=O)O)C2 (stereo unspecified) | 146
50 | Cc1c(C(F)(F)F)noc1NS(=O)(=O)c1ccccc1 | 99.5 to 100
51 | COC(=O)c1ccc(CC(C)NCC(O)c2ccc(O)c(CO)c2)cc1OC (stereo unspecified) | 64 to 71
52 | CC(C)c1ccccc1NC#N | 75 to 77
53 | c1ccc(CCNc2nccc3ccccc23)cc1 | 110 to 112
54 | O=C1c2ccccc2C(=O)N1OC1CCCC1 | 81.2 to 82.5
55 | CCN(CC)CCOc1ccc2[nH]c3c([N+](=O)[O-])ccc(Cl)c3c(=O)c2c1 | 148 to 151
56 | CCCC[C@H](NC(=O)CC[C@H](C)CNC(=O)COc1ccccc1)C(=O)CS(=O)(=O)Cc1ccco1 | 120 to 121
57 | c1ccc2c(c1)nc1n2CCC(CN2CCNCC2)S1 (stereo unspecified) | 151 to 153
58 | CC1(C)Oc2ccc(S(=O)(=O)C(F)(F)F)cc2[C@@H](N2Cc3ccc([N+](=O)[O-])cc3C2=O)[C@@H]1O (relative stereo) | 264 to 266
59 | Cc1cc(Cl)ccc1Cn1nc(C(C)(C)O)c2ccccc21 | 72 to 74
60 | Cn1nc2cccc(Cl)c2c1S(N)(=O)=O | 173 to 175
61 | CC#CNC(=C[N+](=O)[O-])NCCSCc1ccccn1 | 147 to 148
62 | COc1ccc2nc(COc3ccc(CC4SC(=O)N(C(c5ccccc5)(c5ccccc5)c5ccccc5)C4=O)cc3)n(C)c2n1 (stereo unspecified) | 80 to 85
63 | CCCSc1nc(N)nc2c1ncn2C1C=CC(CO)C1 (stereo unspecified) | 128 to 130
64 | CC1(C)CC(=O)C(c2ccc(N)cc2Cl)C(=O)C1 | 218 to 219
65 | COc1ccc(CCOc2ccc(C(=O)N/C(=C\c3ccc(OCC(F)F)cc3)C(=O)NCCO)cc2)cc1 | 172 to 174
66 | Nc1cccc(NC(=O)c2ccc(CNC(=O)OCc3cccnc3)cc2)c1 | 156
67 | N#CC(c1ccnc(OCc2ccccc2)n1)c1nc2ccccc2s1 (stereo unspecified) | 196 to 198

Next, values leading:

Row | melting point [°C] | SMILES
68 | 197 to 200 | CS(=O)(=O)NCCCC1COCc2nc3c(N)nc4c(c3n21)CCCC4 (stereo unspecified)
69 | 245 to 247 | Cc1cccc(NC(=O)NC2CN(C(=O)CN3CCN(C)CC3)c3ccccc3N(CC(=O)c3ccccc3C)C2=O)c1 (stereo unspecified)
70 | 147 to 148 | CCOC(=O)N[C@@H]1CCc2c(ccc(OCc3ccccc3)c2C(=O)OC)[C@H]1O (relative stereo)
71 | 100 to 103 | CC(C)(C)OC(=O)N1CCN(c2cccc(Cl)c2C=O)CC1
72 | 124 to 127 | C=CCN(C)C(=O)Cn1c(-c2ccc(Cl)cc2)nc2cccnc21
73 | 77 | CS(=O)(=O)c1ccc(-c2cc(CCCO[N+](=O)[O-])nn2C2CCCCC2)cc1
74 | > 250 | Cc1cccc(C)c1-c1cccc2c1CC(CN)O2 (stereo unspecified)
75 | 139 | CC(=NNC(=O)C1CCC1)c1ccncc1
76 | 168 to 174 | CC(=O)Nc1ccc(SC2SCC(OC(C)=O)C(OC(C)=O)C2OC(C)=O)cc1 (stereo unspecified)
77 | 121 to 123 | CSc1cc(C)nc(SC)c1NC(=O)CCCCSc1nc2ccccc2s1
78 | 137 to 142 | CN(C)C(=O)N1C[C@@H](O)[C@H](Oc2ccc(Cl)cc2)C1 (relative stereo)
79 | 142 to 144 | CC(C)(C)OC(=O)NCCNC(=O)c1nc(Cl)sc1Br
80 | 155 to 157 | N#CCCCNC(=O)c1nn(C2CCCCO2)cc1NC(=O)c1ccccn1 (stereo unspecified)
81 | 88 to 89 | COC(=O)C1=Cc2cc(Br)ccc2N(C)CCC1
82 | 93 to 95 | CC(=O)N1CCc2c(sc(C)c2CCBr)C1
83 | 94 to 95 | C=CCN1CCc2cc(OC[C@H]3CO[C@](Cn4ccnc4)(c4ccc(Cl)cc4Cl)O3)ccc2C1 (racemic)
84 | 217 to 221 | O=C(O)Cn1c(=O)sc2ccc(O)cc21

Row | melting point [°C] | SMILES
85 | 121 to 123 | COC(=O)N(CO)c1ccc(OCc2nc3ccccc3s2)cc1C
86 | 163 | Cc1cccc(Cl)c1S(=O)(=O)NC(=O)n1nc(Br)n(N(C)C)c1=O
87 | 78 to 79 | COC(=O)CC(=O)N1CCC(c2ccc(OC)c(OC3CCCC3)c2)CC1
88 | 160 | O=C(O)C1CCCN1C(=O)c1ccc(-c2ccccc2)cc1 (stereo unspecified)
89 | 206 to 208 | CN1CCC(C2Nc3cc(Br)ccc3N3CCc4cccc2c43)CC1 (stereo unspecified)
90 | 185 to 198 | CN(C)CC(=O)OCC1CC(c2ccc(-c3ccc(N4C[C@H](Cn5ccnn5)OC4=O)cc3F)cn2)=NO1 (stereo partly specified)
91 | 184 to 185 | COc1ccc(C(=O)Nc2ccccc2)cc1NCc1cccc(C)c1
92 | 110 to 115 | CC(C)(C)OC(=O)CN1CCC2(CCNCC2)OC1=O
93 | 131 to 132 | Cc1ccc(CC2(OCc3ccccc3)CCN(CC3Cc4cc(O)ccc4C3O)CC2)cc1 (stereo unspecified)
94 | 156 to 157 | Cc1ccc(S(=O)(=O)Oc2ccc(S(=O)(=O)CC(=O)C(C)C)cc2)cc1
95 | 174 to 175 | CCOC(=O)c1cc(=O)nc2n1-c1ccccc1OC2
96 | 103 to 106 | CCC1(CCCCN2CCN(c3ccc(C)c(Cl)c3)CC2)C(=O)Nc2ccccc21 (stereo unspecified)
97 | 92 to 93 | CCOC(=O)N1CCN(Cc2ccc(O)c3ncccc23)CC1
98 | 280 to 282 | CC(C)c1cccc(C(C)C)c1NC(=O)CN1C(=O)N(c2ccc(C#N)cc2)C2(CCCCC2)C1=O
99 | 149 | CC1=CC(c2cccc([N+](=O)[O-])c2)C(C(=O)O)=NN1 (stereo unspecified)
100 | 179 to 181 | CCN1CCC(c2c[nH]c3ccc(NS(C)(=O)=O)cc23)CC1
101 | 132 | CC(C)(C)OC(=O)N1CCC[C@H](O)[C@H](NC(=O)c2ccc(OC(C)(C)C)cc2)C1
